Measured values published in patent publication US8575337B2, “Oxazolidinone derivative having fused ring” (Research Foundation Itsuu Laboratory, priority 2008, dated 2013).
≈ marks a conversion by molar mass, not a printed value.

Tests used:
Assay in all cases: MIC determination, CLSI standard method
Type in all cases: cell-based
S. aureus NRS271 (LZD-R) = conditions: Staphylococcus aureus, cation-adjusted Mueller Hinton Broth, inoculum about 5×10^5 CFU/mL
Method: (§1) The compounds of the above Examples were tested for antimicrobial activity.
(§2) Minimal inhibitory concentration (MIC: μg/ml) against different strains of bacteria was determined according to the standard method recommended by CLSI (clinical and laboratory standards institute). The samples used were prepared by dissolving the compound in DMSO at the concentration 1280 μg/mL, followed by a two fold serial dilution with DMSO. The sample was added to a bacteria suspension at the concentration of 5%, and MIC was determined. Cation-adjusted Mueller Hinton Broth was used as a culture media. The inoculation concentration was about 5×10^5 CFU/mL.

S. aureus SR3637 (MRSA) = conditions: Staphylococcus aureus, cation-adjusted Mueller Hinton Broth, inoculum about 5×10^5 CFU/mL
Method: as §1, §2

E. faecium SR7940 (VRE) = conditions: Enterococcus faecium, cation-adjusted Mueller Hinton Broth, inoculum about 5×10^5 CFU/mL
Method: as §1, §2

| MIC (S. aureus NRS271 (LZD-R)) | MIC (S. aureus SR3637 (MRSA)) | MIC (E. faecium SR7940 (VRE)) | Compound |
| --- | --- | --- | --- |
| 2 µg/mL (≈ 5.43 µM) | 0.25 µg/mL (≈ 0.679 µM) | 0.25 µg/mL (≈ 0.679 µM) | CC(=O)NC[C@H]1CN(c2ccc(-c3ccn4ccnc4c3)c(F)c2)C(=O)O1 [Example 18] |
| 32 µg/mL (≈ 94.9 µM) | 2 µg/mL (≈ 5.93 µM) | 2 µg/mL (≈ 5.93 µM) | CC(=O)NC[C@H]1CN(c2ccc(N3CCOCC3)c(F)c2)C(=O)O1 [Linezolid, (S)-n-[[3-[3-fluoro-4-(4-morpholinyl)phenyl]-2-oxo-5-oxazolidinyl]methyl]acetamide] |
